In brackets after ≈: the same amount, converted by molar mass. Activity calls are given as the source filed them. The calls are words filed in the database; no cut-off is given here.
Columns and labels:
Pseudomonas aeruginosa [1] = assay: Antibacterial activity against Pseudomonas aeruginosa incubated for 18 hrs in presence of MgCl2 by broth microdilution method; type: functional, organism-based
Staphylococcus aureus [2] = assay: Additive antibacterial activity against Staphylococcus aureus 794 assessed as fractional inhibitory concentration index incubated for 18 hrs in presence of kanamycin by checkerboard assay; type: functional
Pseudomonas aeruginosa [3] = assay: Induction of morphological change in Pseudomonas aeruginosa assessed as bacterial swelling at 2 times MIC incubated for 30 mins by SEM analysis; type: functional, organism-based
Staphylococcus aureus [4] = assay: Synergistic antibacterial activity against methicillin resistant Staphylococcus aureus 75 assessed as fractional inhibitory concentration index incubated for 18 hrs in presence of kanamycin by checkerboard assay; type: functional
Staphylococcus aureus [5] = assay: Additive antibacterial activity against methicillin resistant Staphylococcus aureus 75 assessed as fractional inhibitory concentration index incubated for 18 hrs in presence of ciprofloxacin by checkerboard assay; type: functional
Staphylococcus aureus [6] = assay: Antibacterial activity against Staphylococcus aureus 794 infected in BALB/c mouse skin wound infection model assessed as wound healing at 1 mg/ml, ip pre-infected with bacteria for 24 hrs followed by compound addition and measured on day 4; type: functional, organism-based; conditions: time 4.0 day
Staphylococcus aureus [7] = assay: Synergistic antibacterial activity against methicillin resistant Staphylococcus aureus 75 assessed as fractional inhibitory concentration index incubated for 18 hrs in presence of rifampin by checkerboard assay; type: functional
Cell membrane [8] = assay: Induction of inner membrane permeabilization in Escherichia coli ML-35 at 1 to 4 times MIC measured every 5 mins for 120 mins by ONPG dye based assay; type: cell membranes
Staphylococcus aureus [9] = assay: Antibacterial activity against Staphylococcus aureus 794 infected in BALB/c mouse skin wound infection model assessed as wound healing at 1 mg/ml, ip pre-infected with bacteria for 24 hrs followed by compound addition and measured on day 11; type: functional; conditions: time 11 day
Staphylococcus aureus [10] = assay: Antibacterial activity against methicillin resistant Staphylococcus aureus 75 incubated for 18 hrs by broth microdilution method; type: functional
Pseudomonas aeruginosa [11] = assay: Antibacterial activity against Pseudomonas aeruginosa incubated for 18 hrs in presence of NaCl by broth microdilution method; type: functional, organism-based
Escherichia coli [12] = assay: Antibacterial activity against Escherichia coli incubated for 18 hrs by broth microdilution method; type: functional
Staphylococcus aureus [13] = assay: Antibacterial activity against Staphylococcus aureus infected in BALB/c mouse systemic infection model assessed as reduction in lung bacterial load at 5 to 10 mg/kg, ip measured after 8 hrs; type: functional, organism-based; conditions: dose 5-10 mg/kg
Staphylococcus aureus [14] = assay: Induction of morphological change in Staphylococcus aureus assessed as bacterial collapse at 2 times MIC incubated for 30 mins by SEM analysis; type: functional, organism-based
Staphylococcus aureus [15] = assay: Antibacterial activity against Staphylococcus aureus S794 incubated for 18 hrs by broth microdilution method; type: functional
Escherichia coli [16] = assay: Antibacterial activity against Escherichia coli infected in BALB/c mouse systemic infection model assessed as reduction in spleen bacterial load at 5 mg/kg, ip measured after 24 hrs; type: functional, organism-based
Staphylococcus aureus [17] = assay: Antibacterial activity against Staphylococcus aureus incubated for 18 hrs in presence of NH4Cl by broth microdilution method; type: functional, organism-based
Staphylococcus aureus [18] = assay: Synergistic antibacterial activity against methicillin resistant Staphylococcus aureus assessed as fractional inhibitory concentration index incubated for 18 hrs in presence of streptomycin by checkerboard assay; type: functional
Escherichia coli [19] = assay: Antibacterial activity against rifampicin resistant Escherichia coli incubated for 18 hrs by broth microdilution method; type: functional
Bacillus subtilis = assay: Bactericidal activity against Bacillus subtilis ATCC 23857 incubated for 18 hrs by broth microdilution method; type: functional
Escherichia coli [20] = assay: Antibacterial activity against kanamycin resistant Escherichia coli incubated for 18 hrs by broth microdilution method; type: functional
[21] = Acute toxicity in mouse assessed as mortality rate at 200 mg/kg, ip by karber method; type: organism-based; conditions: in vivo, read-out: Activity
Staphylococcus aureus [22] = assay: Additive antibacterial activity against Staphylococcus aureus 794 assessed as fractional inhibitory concentration index incubated for 18 hrs in presence of ciprofloxacin by checkerboard assay; type: functional
Escherichia coli [23] = assay: Antibacterial activity against Escherichia coli ATCC 25922 incubated for 18 hrs by broth microdilution method; type: functional
Escherichia coli [24] = assay: Synergistic antibacterial activity against kanamycin resistant Escherichia coli assessed as fractional inhibitory concentration index incubated for 18 hrs in presence of gentamycin by checkerboard assay; type: functional
Staphylococcus aureus [25] = assay: Additive antibacterial activity against Staphylococcus aureus 125 assessed as fractional inhibitory concentration index incubated for 18 hrs in presence of streptomycin by checkerboard assay; type: functional
[26] = Self-assembly property of compound in PBS assessed as beta-sheet formation by measuring particle size at 50 uM by […]; type: physicochemical; conditions: buffer
Staphylococcus aureus [27] = assay: Synergistic antibacterial activity against rifampicin resistant Staphylococcus aureus assessed as fractional inhibitory concentration index incubated for 18 hrs in presence of rifampin by checkerboard assay; type: functional
Staphylococcus aureus [28] = assay: Antibacterial activity against Staphylococcus aureus incubated for 18 hrs in presence of NaCl by broth microdilution method; type: functional, organism-based
[29] = Toxicity in BALB/c mouse infected with Staphylococcus aureus 794 assessed as increase in hair follicles at 1 mg/ml, ip pre-infected with bacteria for 24 hrs followed by compound addition and measured after 13 days by H and E staining based histopathological analysis; type: organism-based; conditions: in vivo, 312 h, time 13 day
Staphylococcus aureus [30] = assay: Antibacterial activity against Staphylococcus aureus 794 infected in BALB/c mouse skin wound infection model assessed as wound healing by measuring thickened scab at 1 mg/ml, ip pre-infected with bacteria for 24 hrs followed by compound addition and measured on day 9; type: functional, organism-based; conditions: time 9.0 day
Staphylococcus aureus [31] = assay: Antibacterial activity against Staphylococcus aureus incubated for 18 hrs in presence of KCl by broth microdilution method; type: functional, organism-based
[32] = Self-assembly property of compound in PBS assessed as beta-sheet protofibrils formation at 128 uM incubated for 30 mins by SEM analysis; type: physicochemical; conditions: buffer, 0.5 h
Pseudomonas aeruginosa [33] = assay: Antibacterial activity against Pseudomonas aeruginosa incubated for 18 hrs in presence of FeCl3 by broth microdilution method; type: functional, organism-based
Cell membrane [34] = assay: Induction of cell membrane disruption in Escherichia coli assessed as PI uptake at 4 times MIC incubated for 2 hrs by PI staining based flow cytometry analysis (reference value: 11.9%); type: cell membranes
Cell membrane [35] = assay: Induction of inner membrane permeabilization in Escherichia coli ML-35 at 1/2 times MIC measured every 5 mins for 120 mins by ONPG dye based assay; type: cell membranes
[36] = Self-assembly property of compound in water assessed as beta-sheet formation by measuring particle size at 50 uM by […]; type: physicochemical; conditions: buffer
Cell membrane [37] = assay: Induction of cell membrane disruption in Staphylococcus aureus assessed as PI uptake at 2 times MIC incubated for 2 hrs by PI staining based flow cytometry analysis (reference value: 15.9%); type: cell membranes
Klebsiella pneumoniae = assay: Antibacterial activity against Klebsiella pneumoniae ATCC 700603 incubated for 18 hrs by broth microdilution method; type: functional
Staphylococcus aureus [38] = assay: Antibacterial activity against Staphylococcus aureus ATCC 25923 infected in BALB/c mouse skin wound infection model assessed as reduction in wound bacterial load at 1 mg/ml, ip administered at 1 hr interval for total 6 treatment and measured after 1 hr post last dose; type: functional, organism-based; conditions: time 7.0 hrs
Staphylococcus aureus [39] = assay: Antibacterial activity against methicillin resistant Staphylococcus aureus 113 incubated for 18 hrs by broth microdilution method; type: functional
Staphylococcus aureus [40] = assay: Additive antibacterial activity against Staphylococcus aureus 794 assessed as fractional inhibitory concentration index incubated for 18 hrs in presence of gentamycin by checkerboard assay; type: functional

NCCCC[C@@H](NC(=O)[C@H](N)Cc1c[nH]c2ccccc12)C(=O)N[C@H](Cc1c[nH]c2ccccc12)C(=O)N[C@H](CCCCN)C(=O)N[C@H](Cc1c[nH]c2ccccc12)C(=O)N[C@@H](CC(N)=O)C(=O)NCC(=O)N[C@H](Cc1c[nH]c2ccccc12)C(=O)N[C@H](CCCCN)C(=O)N[C@H](Cc1c[nH]c2ccccc12)C(=O)N[C@H](CCCCN)C(=O)N[C@H](Cc1c[nH]c2ccccc12)C(N)=O
Activity (Pseudomonas aeruginosa [1]): Active
fractional inhibitory concentration index (FICI) (Staphylococcus aureus [2]): 0.563
Activity (Pseudomonas aeruginosa [3]): Active
fractional inhibitory concentration index (FICI) (Staphylococcus aureus [4]): 0.5
fractional inhibitory concentration index (FICI) (Staphylococcus aureus [5]): 0.563
Activity (Staphylococcus aureus [6]): inactive
fractional inhibitory concentration index (FICI) (Staphylococcus aureus [7]): 0.313
Activity (Cell membrane [8]): Active
Activity (Staphylococcus aureus [9]): 100%
MIC (Staphylococcus aureus [10]): 8 µM (≈ 14.5 µg/mL)
Activity (Pseudomonas aeruginosa [11]): Active
MIC (Escherichia coli [12]): 8 µM (≈ 14.5 µg/mL)
Activity (Staphylococcus aureus [13]): Active
Activity (Staphylococcus aureus [14]): Active
MIC (Staphylococcus aureus [15]): 8 µM (≈ 14.5 µg/mL)
Activity (Escherichia coli [16]): Active
Activity (Staphylococcus aureus [17]): Active
fractional inhibitory concentration index (FICI) (Staphylococcus aureus [18]): 0.5
MIC (Escherichia coli [19]): 8 µM (≈ 14.5 µg/mL)
MBC (Bacillus subtilis): 4 µM (≈ 7.27 µg/mL)
MIC (Escherichia coli [20]): 16 µM (≈ 29.1 µg/mL)
mortality [21]: 20%
fractional inhibitory concentration index (FICI) (Staphylococcus aureus [22]): 0.563
MIC (Escherichia coli [23]): 8 µM (≈ 14.5 µg/mL)
fractional inhibitory concentration index (FICI) (Escherichia coli [24]): 0.188
fractional inhibitory concentration index (FICI) (Staphylococcus aureus [25]): 1
Activity [26]: 874.9 nm
fractional inhibitory concentration index (FICI) (Staphylococcus aureus [27]): 0.375
Activity (Staphylococcus aureus [28]): Active
Activity [29]: Toxic
Activity (Staphylococcus aureus [30]): Active
Activity (Staphylococcus aureus [31]): Active
Activity [32]: Active
Activity (Pseudomonas aeruginosa [33]): Active
Activity (Cell membrane [34]): 92.8%
Activity (Cell membrane [35]): inactive
Activity [36]: 126.5 nm
Activity (Cell membrane [37]): 96.6%
MIC (Klebsiella pneumoniae): 8 µM (≈ 14.5 µg/mL)
Activity (Staphylococcus aureus [38]): Active
MIC (Staphylococcus aureus [39]): 8 µM (≈ 14.5 µg/mL)
fractional inhibitory concentration index (FICI) (Staphylococcus aureus [40]): 0.563

— ChEMBL document CHEMBL5543109, “Novel β-Hairpin Antimicrobial Peptide Containing the β-Turn Sequence of -NG- and the Tryptophan Zippers Facilitate Self-Assembly into Nanofibers, Exhibiting Excellent Antimicrobial Performance” (J Med Chem, 2024)
